Source: patent US6737383B1, “Herbicidal oxadiazolidines” (priority 1999, dated 2004)

Tests used:
velvetleaf = test: Test B pre/postemergence velvetleaf; type: in vivo, Abutilon theophrasti
Summary of the method: (§1)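 Test chemicals in a non-phytotoxic solvent mixture with surfactant were sprayed preemergence onto planted seeds and postemergence onto plants 2 to 18 cm tall (1- to 4-leaf stage). After twelve to sixteen days in a greenhouse, injury was visually rated against untreated controls from 0 (no effect) to 10 (complete control).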

surinam grass = test: Test B pre/postemergence surinam grass; type: in vivo, Brachiaria decumbens
Summary of the method: as §1

smallflower flatsedge = test: Test B flood test smallflower flatsedge; type: in vivo, Cyperus difformis
Summary of the method: (§2)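 Each value is a visual injury score relative to controls, with 10 meaning complete control and 0 no effect. Evaluation took place twelve to sixteen days after the 2-leaf-stage plants were treated and kept in the greenhouse.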

cocklebur = test: Test B pre/postemergence cocklebur; type: in vivo, Xanthium strumarium
Summary of the method: as §1

soybean = test: Test B pre/postemergence soybean; type: in vivo, Glycine max
Summary of the method: as §1

morningglory = test: Test B pre/postemergence morningglory; type: in vivo, Ipomoea hederacea
Summary of the method: as §1

blackgrass = test: Test B pre/postemergence blackgrass; type: in vivo, Alopecurus myosuroides
Summary of the method: as §1

corn = test: Test B pre/postemergence corn; type: in vivo, Zea mays
Summary of the method: as §1

purple nutsedge = test: Test B pre/postemergence purple nutsedge; type: in vivo, Cyperus rotundus
Summary of the method: as §1

rape = test: Test B pre/postemergence rape; type: in vivo, Brassica napus
Summary of the method: as §1

bedstraw = test: Test B pre/postemergence bedstraw; type: in vivo, Galium aparine
Summary of the method: as §1

bamyardgrass = test: Test B flood test barnyardgrass; type: in vivo, Echinochloa crus-galli
Summary of the method: as §2

sugar beet = test: Test B pre/postemergence sugar beet; type: in vivo, Beta vulgaris
Summary of the method: as §1

giant foxtail = test: Test B pre/postemergence giant foxtail; type: in vivo, Setaria faberii
Summary of the method: as §1

pigweed = test: Test B pre/postemergence pigweed; type: in vivo, Amaranthus retroflexus
Summary of the method: as §1

duck salad = test: Test B flood test duck salad; type: in vivo, Heteranthera limosa
Summary of the method: as §2

[1] = Postemergence, Rate 62 g/ha, scale 0 to 10, 0 is no effect, 10 is complete control
[2] = Postemergence, Rate 250 g/ha, scale 0 to 10, 0 no effect, 10 complete control
[3] = Preemergence, Rate 62 g/ha, scale 0 to 10 (0 no effect, 10 complete control)
[4] = Preemergence, Rate 125 g/ha, scale 0 to 10 (0 no effect, 10 complete control)
[5] = Preemergence, Rate 250 g/ha, scale of 0 to 10 where 0 is no effect and 10 is complete control
[6] = Preemergence, Rate 500 g/ha, scale 0 (no effect) to 10 (complete control)
[7] = Rate 125 g/ha, Postemergence, scale 0 to 10, 0 no effect, 10 complete control
[8] = Rate 500 g/ha, Postemergence, scale 0 to 10, 0 no effect, 10 complete control
[9] = Rate 125 g/ha, Postemergence section (flood test species), scale 0 to 10, 0 no effect, 10 complete control
[10] = Rate 500 g/ha, listed under Postemergence (flood test species), scale 0 to 10, 0 no effect, 10 complete control
[11] = flood test, listed under Postemergence, Rate 250 g/ha, scale 0 to 10, 0 no effect, 10 complete control

In the case of Cc1ccccc1-n1c(=O)on(C(=O)N(c2cc(F)cc(F)c2)C(C)C)c1=O [Compound 67], the “Velvetleaf plant response rating” value (velvetleaf; [1]) is reported as 0, the “Velvetleaf plant response rating” value (velvetleaf; [2]) is reported as 0 and the “Velvetleaf plant response rating” value (velvetleaf; [3]) is reported as 0. For the same compound, the “Plant response rating, Velvetleaf” value (velvetleaf; [4]) was 0, the “Plant response rating, Velvetleaf” value (velvetleaf; [5]) was 0 and the “Velvetleaf plant response rating” value (velvetleaf; [6]) was 0. The “Velvetleaf plant response rating” value (velvetleaf; [7]) was 0, the “Velvetleaf plant response rating” value (velvetleaf; [8]) was 0 and the “B. signalgrass plant response rating” value (surinam grass; [1]) was 0. The “B. signalgrass plant response rating” value (surinam grass; [2]) was 0, the “B. signalgrass plant response rating” value (surinam grass; [3]) was 0 and the “Plant response rating, B. signalgrass” value (surinam grass; [4]) was 0. The “Plant response rating, B. signalgrass” value (surinam grass; [5]) was 0, the “B. signalgrass plant response rating” value (surinam grass; [6]) was 2 and the “B. signalgrass plant response rating” value (surinam grass; [7]) was 0. For the same compound, the “B. signalgrass plant response rating” value (surinam grass; Rate 500 g/ha, Postemergence, scale of 0 to 10 where 0 is no effect and 10 is complete control) was 0, the “S. Flatsedge plant response rating” value (smallflower flatsedge; [1]) was 0 and the “S. Flatsedge plant response rating” value (smallflower flatsedge; [9]) was 0. For the same compound, the “S. Flatsedge plant response rating” value (smallflower flatsedge; [10]) was 0, the “S. Flatsedge plant response rating” value (smallflower flatsedge; [11]) was 0 and the “Cocklebur plant response rating” value (cocklebur; [1]) was 0. For the same compound, the “Cocklebur plant response rating” value (cocklebur; [2]) was 1, the “Cocklebur plant response rating” value (cocklebur; [3]) was 0 and the “Plant response rating, Cocklebur” value (cocklebur; [4]) was 0. The “Plant response rating, Cocklebur” value (cocklebur; [5]) was 0, the “Cocklebur plant response rating” value (cocklebur; [6]) was 0 and the “Cocklebur plant response rating” value (cocklebur; [7]) was 0. The “Cocklebur plant response rating” value (cocklebur; [8]) was 1, the “Soybean plant response rating” value (soybean; [1]) was 0 and the “Soybean plant response rating” value (soybean; [2]) was 1. For the same compound, the “Soybean plant response rating” value (soybean; [3]) was 0, the “Plant response rating, Soybean” value (soybean; [4]) was 0 and the “Plant response rating, Soybean” value (soybean; [5]) was 0. For the same compound, the “Soybean plant response rating” value (soybean; [6]) was 0, the “Soybean plant response rating” value (soybean; [7]) was 1 and the “Soybean plant response rating” value (soybean; [8]) was 1. For the same compound, the “Morningglory plant response rating” value (morningglory; [1]) was 0, the “Morningglory plant response rating” value (morningglory; [2]) was 2 and the “Morningglory plant response rating” value (morningglory; [3]) was 0. The “Plant response rating, Morningglory” value (morningglory; [4]) was 0, the “Plant response rating, Morningglory” value (morningglory; [5]) was 0 and the “Morningglory plant response rating” value (morningglory; [6]) was 0. The “Morningglory plant response rating” value (morningglory; [7]) was 2, the “Morningglory plant response rating” value (morningglory; [8]) was 6 and the “Blackgrass plant response rating” value (blackgrass; [1]) was 0. For the same compound, the “Blackgrass plant response rating” value (blackgrass; [2]) was 0, the “Blackgrass plant response rating” value (blackgrass; [3]) was 0 and the “Plant response rating, Blackgrass” value (blackgrass; [4]) was 0. The “Plant response rating, Blackgrass” value (blackgrass; [5]) was 2, the “Blackgrass plant response rating” value (blackgrass; [6]) was 2 and the “Blackgrass plant response rating” value (blackgrass; [7]) was 0. For the same compound, the “Blackgrass plant response rating” value (blackgrass; [8]) was 0, the “Corn plant response rating” value (corn; [1]) was 0 and the “Corn plant response rating” value (corn; [2]) was 0. For the same compound, the “Corn plant response rating” value (corn; [3]) was 0, the “Plant response rating, Corn” value (corn; [4]) was 0 and the “Plant response rating, Corn” value (corn; [5]) was 0. For the same compound, the “Corn plant response rating” value (corn; [6]) was 0, the “Corn plant response rating” value (corn; [7]) was 0 and the “Corn plant response rating” value (corn; [8]) was 0. For the same compound, the “Nutsedge plant response rating” value (purple nutsedge; [1]) was 0, the “Nutsedge plant response rating” value (purple nutsedge; [2]) was 0 and the “Nutsedge plant response rating” value (purple nutsedge; [3]) was 0. The “Plant response rating, Nutsedge” value (purple nutsedge; [4]) was 0, the “Plant response rating, Nutsedge” value (purple nutsedge; [5]) was 0 and the “Nutsedge plant response rating” value (purple nutsedge; [6]) was 0. The “Nutsedge plant response rating” value (purple nutsedge; [7]) was 0, the “Nutsedge plant response rating” value (purple nutsedge; [8]) was 0 and the “Rape plant response rating” value (rape; [1]) was 0. For the same compound, the “Rape plant response rating” value (rape; [2]) was 0, the “Rape plant response rating” value (rape; [3]) was 0 and the “Plant response rating, Rape” value (rape; [4]) was 0. The “Plant response rating, Rape” value (rape; [5]) was 0, the “Rape plant response rating” value (rape; [6]) was 0 and the “Rape plant response rating” value (rape; [7]) was 0. The “Rape plant response rating” value (rape; [8]) was 2, the “Bedstraw plant response rating” value (bedstraw; [1]) was 0 and the “Bedstraw plant response rating” value (bedstraw; [2]) was 7. The “Bedstraw plant response rating” value (bedstraw; [3]) was 0, the “Plant response rating, Bedstraw” value (bedstraw; [4]) was 0 and the “Plant response rating, Bedstraw” value (bedstraw; [5]) was 0. For the same compound, the “Bedstraw plant response rating” value (bedstraw; [6]) was 0, the “Bedstraw plant response rating” value (bedstraw; [7]) was 5 and the “Bedstraw plant response rating” value (bedstraw; [8]) was 8. For the same compound, the “Barnyardgrass plant response rating” value (bamyardgrass; [1]) was 0, the “Barnyardgrass plant response rating” value (bamyardgrass; [9]) was 0 and the “Barnyardgrass plant response rating” value (bamyardgrass; [10]) was 0. The “Barnyardgrass plant response rating” value (bamyardgrass; [11]) was 0, the “Sugarbeets plant response rating” value (sugar beet; [1]) was 0 and the “Sugarbeets plant response rating” value (sugar beet; [2]) was 0. The “Sugarbeets plant response rating” value (sugar beet; [3]) was 0, the “Plant response rating, Sugarbeets” value (sugar beet; [4]) was 0 and the “Plant response rating, Sugarbeets” value (sugar beet; [5]) was 0. For the same compound, the “Sugarbeets plant response rating” value (sugar beet; [6]) was 3, the “Sugarbeets plant response rating” value (sugar beet; [7]) was 0 and the “Sugarbeets plant response rating” value (sugar beet; [8]) was 2. The “Giant foxtail plant response rating” value (giant foxtail; [1]) was 0, the “Giant foxtail plant response rating” value (giant foxtail; [2]) was 0 and the “Giant foxtail plant response rating” value (giant foxtail; [3]) was 3. The “Plant response rating, Giant foxtail” value (giant foxtail; [4]) was 7, the “Plant response rating, Giant foxtail” value (giant foxtail; [5]) was 8 and the “Giant foxtail plant response rating” value (giant foxtail; [6]) was 8. The “Giant foxtail plant response rating” value (giant foxtail; [7]) was 0, the “Giant foxtail plant response rating” value (giant foxtail; [8]) was 0 and the “Redroot pigweed plant response rating” value (pigweed; [1]) was 0. The “Redroot pigweed plant response rating” value (pigweed; [2]) was 0, the “Redroot pigweed plant response rating” value (pigweed; [3]) was 4 and the “Plant response rating, Redroot pigweed” value (pigweed; [4]) was 4. For the same compound, the “Plant response rating, Redroot pigweed” value (pigweed; [5]) was 9, the “Redroot pigweed plant response rating” value (pigweed; [6]) was 10 and the “Redroot pigweed plant response rating” value (pigweed; [7]) was 0. The “Redroot pigweed plant response rating” value (pigweed; [8]) was 4, the “Ducksalad plant response rating” value (duck salad; [1]) was 0 and the “Ducksalad plant response rating” value (duck salad; [9]) was 0. For the same compound, the “Ducksalad plant response rating” value (duck salad; [10]) was 0 and the “Ducksalad plant response rating” value (duck salad; [11]) was 0.
